Laboratory results reported in BigSolDB 2.1.

O=S(=O)([O-])c1cccc2ccccc12.[Na+]
solubility (mole fraction)
Settings	278.15 K	283.15 K	288.15 K	293.15 K	298.15 K	303.15 K	308.15 K	313.15 K	318.15 K	323.15 K
in 1,4-dioxane	0.0004	0.000497	0.000602	0.000722	0.000842	0.00101	0.00121	0.00143	0.00169	0.00203
in acetone	9.36e-05	0.000122	0.000156	0.000197	0.00024	0.000288	0.000351	0.000417	0.000501	0.0006
in cyclohexanone	0.000222	0.000299	0.00038	0.000481	0.000603	0.000743	0.0009	0.00108	0.00127	0.00152
in ethanol	0.000297	0.000386	0.000513	0.000668	0.000829	0.00106	0.00132	0.00167	0.00217	0.00277
in ethyl acetate	4.49e-05	5.77e-05	7.34e-05	9.37e-05	0.000119	0.000148	0.000184	0.000227	0.000269	0.000311
in isopropanol	0.000108	0.000145	0.000204	0.000275	0.000351	0.000458	0.000588	0.000727	0.000886	0.00109
